Data: PubChem BioAssay (NCI)
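GI50 = concentration required for 50% inhibition of growth. TGI: concentration producing complete growth inhibition.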

Assays:
Assay in all cases: NCI tumour cell line growth inhibition, 384-well format
DU-145 prostate = tested on: DU-145 prostate
NCI-H522 lung = tested on: NCI-H522 lung
SF-295 CNS = tested on: SF-295 CNS
MOLT-4 leukemia = tested on: MOLT-4 leukemia
SK-MEL-5 melanoma = tested on: SK-MEL-5 melanoma
HOP-92 NSCLC = tested on: HOP-92 NSCLC
NCI-H226 lung = tested on: NCI-H226 lung
SF-539 CNS = tested on: SF-539 CNS
PC-3 prostate = tested on: PC-3 prostate
T-47D breast = tested on: T-47D breast
CCRF-CEM leukemia = tested on: CCRF-CEM leukemia
KM12 colon = tested on: KM12 colon
NCI/ADR-RES ovarian = tested on: NCI/ADR-RES ovarian
RPMI-8226 leukemia = tested on: RPMI-8226 leukemia
UACC-62 melanoma = tested on: UACC-62 melanoma
NCI-H460 NSCLC = tested on: NCI-H460 NSCLC
HCT-116 colon = tested on: HCT-116 colon
K-562 leukemia = tested on: K-562 leukemia
SW-620 colon = tested on: SW-620 colon
HS 578T breast = tested on: HS 578T breast
SF-268 CNS = tested on: SF-268 CNS
MDA-MB-435 melanoma = tested on: MDA-MB-435 melanoma
NCI-H322M lung = tested on: NCI-H322M lung
SN12C renal = tested on: SN12C renal
HCT-15 colon = tested on: HCT-15 colon
COLO 205 colon = tested on: COLO 205 colon
SNB-75 CNS = tested on: SNB-75 CNS
HT29 colon = tested on: HT29 colon
M14 melanoma = tested on: M14 melanoma
SNB-19 CNS = tested on: SNB-19 CNS
EKVX NSCLC = tested on: EKVX NSCLC
MCF7 breast = tested on: MCF7 breast
OVCAR-5 ovarian = tested on: OVCAR-5 ovarian
UACC-257 melanoma = tested on: UACC-257 melanoma
SK-OV-3 ovarian = tested on: SK-OV-3 ovarian
SK-MEL-2 melanoma = tested on: SK-MEL-2 melanoma
RXF 393 renal = tested on: RXF 393 renal
OVCAR-8 ovarian = tested on: OVCAR-8 ovarian
OVCAR-4 ovarian = tested on: OVCAR-4 ovarian
A549 NSCLC = tested on: A549 NSCLC
LOX IMVI melanoma = tested on: LOX IMVI melanoma
786-0 renal = tested on: 786-0 renal
TK-10 renal = tested on: TK-10 renal
ACHN renal = tested on: ACHN renal
MDA-MB-231 breast = tested on: MDA-MB-231 breast
OVCAR-3 ovarian = tested on: OVCAR-3 ovarian
HCC-2998 colon = tested on: HCC-2998 colon
SR leukemia = tested on: SR leukemia
CAKI-1 renal = tested on: CAKI-1 renal
MDA-MB-468 breast = tested on: MDA-MB-468 breast
MALME-3M melanoma = tested on: MALME-3M melanoma
HOP-62 NSCLC = tested on: HOP-62 NSCLC
SK-MEL-28 melanoma = tested on: SK-MEL-28 melanoma
A498 renal = tested on: A498 renal
IGROV1 ovarian = tested on: IGROV1 ovarian
NCI-H23 lung = tested on: NCI-H23 lung
BT-549 breast = tested on: BT-549 breast
HL-60(TB) leukemia = tested on: HL-60(TB) leukemia
U251 glioblastoma = tested on: U251 glioblastoma

Work on N#Cc1ccc(-c2c(-c3ncn[nH]3)sc(N3CCOCC3)c2C#N)c(F)c1 yielded a GI50 (DU-145 prostate) of 1.91 µM, a TGI (DU-145 prostate) of 15.1 µM and a GI50 (NCI-H522 lung) of 1.98 µM. It also gave a TGI (NCI-H522 lung) of 17.3 µM, a GI50 (SF-295 CNS) of 1.24 µM and a TGI (SF-295 CNS) of 15.7 µM. The GI50 (MOLT-4 leukemia) was 0.413 µM, the TGI (MOLT-4 leukemia) was 1.71 µM and the GI50 (SK-MEL-5 melanoma) was 1.77 µM. The TGI (SK-MEL-5 melanoma) was 10 µM, the GI50 (HOP-92 NSCLC) was 1.16 µM and the TGI (HOP-92 NSCLC) was greater than 33 µM. The GI50 (NCI-H226 lung) was 2.01 µM, the TGI (NCI-H226 lung) was 17.3 µM and the GI50 (SF-539 CNS) was 1.7 µM. The TGI (SF-539 CNS) was 20 µM, the GI50 (PC-3 prostate) was 0.641 µM and the TGI (PC-3 prostate) was 8.87 µM. It also gave a GI50 (T-47D breast) of 0.152 µM, a TGI (T-47D breast) of 2.54 µM and a GI50 (CCRF-CEM leukemia) of 2.21 µM. It also gave a TGI (CCRF-CEM leukemia) of 9.61 µM, a GI50 (KM12 colon) of 3.64 µM and a TGI (KM12 colon) of 20.3 µM. The GI50 (NCI/ADR-RES ovarian) was 5.53 µM, the TGI (NCI/ADR-RES ovarian) was 63.6 µM and the GI50 (RPMI-8226 leukemia) was 1.82 µM. It also gave a TGI (RPMI-8226 leukemia) of 5.06 µM, a GI50 (UACC-62 melanoma) of 1.01 µM and a TGI (UACC-62 melanoma) of 10.8 µM. For the same molecule, the GI50 (NCI-H460 NSCLC) was 0.68 µM, the TGI (NCI-H460 NSCLC) was 11.4 µM and the GI50 (HCT-116 colon) was 1.52 µM. For the same molecule, the TGI (HCT-116 colon) was 38.5 µM, the GI50 (K-562 leukemia) was 6.27 µM and the TGI (K-562 leukemia) was greater than 100 µM. For the same molecule, the GI50 (SW-620 colon) was 4.94 µM, the TGI (SW-620 colon) was 23.6 µM and the GI50 (HS 578T breast) was 0.779 µM. For the same molecule, the TGI (HS 578T breast) was 16 µM, the GI50 (SF-268 CNS) was 4.1 µM and the TGI (SF-268 CNS) was 33 µM. It also gave a GI50 (MDA-MB-435 melanoma) of 2.47 µM, a TGI (MDA-MB-435 melanoma) of 19.5 µM and a GI50 (NCI-H322M lung) of 1.32 µM. The TGI (NCI-H322M lung) was 5.36 µM, the GI50 (SN12C renal) was 0.145 µM and the TGI (SN12C renal) was 3.77 µM. The GI50 (HCT-15 colon) was 1.69 µM, the TGI (HCT-15 colon) was 15.9 µM and the GI50 (COLO 205 colon) was 1.65 µM. It also gave a TGI (COLO 205 colon) of 17.4 µM, a GI50 (SNB-75 CNS) of 0.32 µM and a GI50 (HT29 colon) of 0.9 µM. It also gave a TGI (HT29 colon) of 17.9 µM, a GI50 (M14 melanoma) of 2.95 µM and a TGI (M14 melanoma) of 31.8 µM. For the same molecule, the GI50 (SNB-19 CNS) was 14.7 µM, the TGI (SNB-19 CNS) was greater than 70.8 µM and the GI50 (EKVX NSCLC) was 0.368 µM. The TGI (EKVX NSCLC) was 3.44 µM, the GI50 (MCF7 breast) was 0.222 µM and the TGI (MCF7 breast) was 20.6 µM. It also gave a GI50 (OVCAR-5 ovarian) of 1.01 µM, a TGI (OVCAR-5 ovarian) of 26.1 µM and a GI50 (UACC-257 melanoma) of 2.51 µM. The TGI (UACC-257 melanoma) was 15.1 µM, the GI50 (SK-OV-3 ovarian) was 0.315 µM and the TGI (SK-OV-3 ovarian) was 5.89 µM. The GI50 (SK-MEL-2 melanoma) was 2.64 µM, the TGI (SK-MEL-2 melanoma) was 12.6 µM and the GI50 (RXF 393 renal) was 1.27 µM. It also gave a TGI (RXF 393 renal) of 7.45 µM, a GI50 (OVCAR-8 ovarian) of 3.52 µM and a TGI (OVCAR-8 ovarian) greater than 60.2 µM. It also gave a GI50 (OVCAR-4 ovarian) of 1.96 µM, a TGI (OVCAR-4 ovarian) of 22.1 µM and a GI50 (A549 NSCLC) of 1.35 µM. For the same molecule, the TGI (A549 NSCLC) was 11.8 µM, the GI50 (LOX IMVI melanoma) was 1.93 µM and the TGI (LOX IMVI melanoma) was 13.5 µM. It also gave a GI50 ([…]-0 renal) of 2.13 µM, a TGI (786-0 renal) of 11.5 µM and a GI50 (TK-10 renal) of 0.789 µM. It also gave a TGI (TK-10 renal) of 9.59 µM, a GI50 (ACHN renal) of 0.525 µM and a TGI (ACHN renal) of 14.2 µM. The GI50 (MDA-MB-231 breast) was 5.88 µM, the TGI (MDA-MB-231 breast) was greater than 62.6 µM and the GI50 (OVCAR-3 ovarian) was 0.837 µM. For the same molecule, the TGI (OVCAR-3 ovarian) was 5.83 µM, the GI50 (HCC-2998 colon) was 1.23 µM and the TGI (HCC-2998 colon) was 10.8 µM. It also gave a GI50 (SR leukemia) of 0.763 µM, a TGI (SR leukemia) of 2.57 µM and a GI50 (CAKI-1 renal) of 0.557 µM. It also gave a TGI (CAKI-1 renal) of 13.2 µM, a GI50 (MDA-MB-468 breast) of 0.54 µM and a TGI (MDA-MB-468 breast) of 2.68 µM. For the same molecule, the GI50 (MALME-3M melanoma) was 0.95 µM, the TGI (MALME-3M melanoma) was 6.92 µM and the GI50 (HOP-62 NSCLC) was 3.4 µM. It also gave a TGI (HOP-62 NSCLC) of 21 µM, a GI50 (SK-MEL-28 melanoma) of 1.76 µM and a TGI (SK-MEL-28 melanoma) greater than 67.9 µM. It also gave a GI50 (A498 renal) of 0.577 µM, a TGI (A498 renal) of 2.67 µM and a GI50 (IGROV1 ovarian) of 0.191 µM. It also gave a TGI (IGROV1 ovarian) of 0.631 µM, a GI50 (NCI-H23 lung) of 2.35 µM and a TGI (NCI-H23 lung) greater than 55.3 µM. It also gave a GI50 (BT-549 breast) of 1.95 µM, a TGI (BT-549 breast) of 12.8 µM and a GI50 (HL-60(TB) leukemia) of 0.209 µM. For the same molecule, the TGI (HL-60(TB) leukemia) was 1.44 µM, the GI50 (U251 glioblastoma) was 7.2 µM and the TGI (U251 glioblastoma) was greater than 80.6 µM.
